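A five-concentration, 48-hour dose response in 96-well plates underlies each endpoint, interpolated linearly between surrounding concentrations. GI50 is the concentration that inhibits growth by half. The concentration for full growth arrest is given as TGI.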
How the values were obtained:
Experiment in all cases: growth of human tumour cells (NCI), 48 h
[1] = system: LOX IMVI melanoma
[2] = system: NCI/ADR-RES ovarian
[3] = system: OVCAR-4 ovarian
[4] = system: RXF 393 renal
[5] = system: SF-268 CNS
[6] = system: SK-OV-3 ovarian
[7] = system: SNB-19 CNS
[8] = system: SNB-75 CNS
[9] = system: SW-620 colon
[10] = system: HCC-2998 colon

Row | Structure (SMILES) | TGI [1] [µM] | TGI [2] [µM] | TGI [3] [µM] | TGI [4] [µM] | TGI [5] [µM] | TGI [6] [µM] | TGI [7] [µM] | TGI [8] [µM] | TGI [9] [µM] | GI50 [10] [µM] | TGI [10] [µM] | GI50 [1] [µM] | GI50 [2] [µM] | GI50 [3] [µM] | GI50 [4] [µM] | GI50 [5] [µM] | GI50 [6] [µM] | GI50 [7] [µM] | GI50 [8] [µM] | GI50 [9] [µM]
1 | CCOC(=O)c1c(-c2cccc(Cl)c2)c(C(=O)OC)c(C)c2sc(C=O)nc12 | 28.9 | 68.5 | 40.3 | 44.6 | 38.6 | 92.2 | > 100 | > 100 | > 100 | – | – | – | – | – | – | – | – | – | – | –
2 | N#Cc1ccccc1C#C/C=C\C#Cc1ccccc1N | > 35.4 | 29.2 | > 100 | > 23.7 | > 56.2 | > 100 | > 100 | > 25.3 | > 100 | 0.808 | 4.11 | 4.04 | 2.44 | 16.1 | 7 | 9.12 | 3.22 | 7.17 | 6.13 | 3.76
3 | COc1cc(C2c3cc4c(cc3[C@@H](Nc3ccc(Oc5ccccc5)cc3)C3COC(=O)[C@H]23)OCO4)cc(OC)c1O (stereo partly drawn) | > 100 | > 100 | > 100 | > 100 | > 100 | > 52 | > 100 | 96.9 | > 100 | – | 13.8 | – | – | – | – | – | – | – | – | –
4 | Clc1ccc(Nc2nc(Nc3ccccc3)nc(Nc3ccc(-c4cc(-c5ccc(Cl)cc5)on4)cc3)n2)cc1 | > 100 | > 100 | > 100 | 37.6 | > 100 | > 100 | > 100 | > 100 | > 100 | 29.1 | > 100 | 13.7 | 21.1 | 15.4 | 11.3 | 43.4 | 29 | 45.6 | 21.6 | 26.4
5 | Cc1oc(N)c(S(=O)(=O)c2cc3ccccc3n(O)c2=N)c1C | > 100 | > 100 | > 100 | – | > 100 | > 100 | > 100 | > 100 | > 100 | – | > 100 | – | – | – | – | – | – | – | – | –
6 | CC(=O)Nc1ccc(C(=O)NN2C(=O)C(Cl)C2c2cccc([N+](=O)[O-])c2)cc1 (stereo not drawn) | – | – | – | – | > 100 | > 100 | > 100 | > 100 | > 100 | – | > 100 | – | – | – | – | – | – | – | – | –
7 | CC1=C[C@@H](C)C[C@]2(C)CC[C@H](O2)[C@]23CC[C@](CO)(C[C@H](O2)[C@@H]2O[C@@](C)(CC2=O)[C@@H](O)[C@H]2CC[C@@]4(CCC[C@@H](O4)[C@H](C)C(=O)O[C@H]4C[C@H]([C@]5(O)OCC[C@H](C)[C@@H]5O)O[C@H]4C=C1)O2)O3 | 0.155 | > 10 | > 10 | 0.0801 | 0.0252 | 0.159 | – | 0.00179 | > 10 | – | > 10 | – | – | – | – | – | – | – | – | –
8 | CCOCC(=O)N(C)c1cccc2c3c(n(C)c12)CCCCC3 | > 100 | > 100 | > 100 | > 100 | > 100 | > 100 | > 100 | > 100 | > 100 | – | > 100 | – | – | – | – | – | – | – | – | –

— PubChem BioAssay (NCI)
